This note sets out measurements from ChEMBL document CHEMBL3124840, “Chemical composition of the bark of Tetrapterys mucronata and identification of acetylcholinesterase inhibitory constituents” (J Nat Prod, 2014).

Each structure is given as a SMILES string.

Sequence of Acetylcholinesterase (O42275 whole entry): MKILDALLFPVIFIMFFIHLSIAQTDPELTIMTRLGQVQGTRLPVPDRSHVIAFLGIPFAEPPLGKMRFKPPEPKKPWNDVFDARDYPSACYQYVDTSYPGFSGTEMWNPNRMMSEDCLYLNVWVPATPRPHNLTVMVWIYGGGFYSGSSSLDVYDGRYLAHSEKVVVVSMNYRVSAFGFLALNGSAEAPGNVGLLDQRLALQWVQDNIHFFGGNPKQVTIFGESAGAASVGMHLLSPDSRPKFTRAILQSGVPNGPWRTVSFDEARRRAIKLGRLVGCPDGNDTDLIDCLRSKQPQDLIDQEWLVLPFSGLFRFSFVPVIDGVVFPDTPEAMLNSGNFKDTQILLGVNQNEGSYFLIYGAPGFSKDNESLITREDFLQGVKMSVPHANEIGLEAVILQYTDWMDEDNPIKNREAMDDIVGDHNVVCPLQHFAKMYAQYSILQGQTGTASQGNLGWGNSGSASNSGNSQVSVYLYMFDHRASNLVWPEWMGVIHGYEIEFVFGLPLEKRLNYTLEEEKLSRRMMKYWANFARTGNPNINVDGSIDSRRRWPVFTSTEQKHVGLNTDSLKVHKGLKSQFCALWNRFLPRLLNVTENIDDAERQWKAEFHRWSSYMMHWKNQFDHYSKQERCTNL

The test concerns the target Acetylcholinesterase (Electrophorus electricus, UniProt O42275).
Description: Inhibition of Electric eel AChE assessed as amount of thiocholine released using acetylthiocholine iodide as substrate after 6 mins by Ellman's method
Molecule `CN(C)CCc1c(C(c2c[nH]c3ccccc23)C(O)CO)[nH]c2ccc(O)cc12` (stereo not given) had an IC50 of 11.7 µM.

Turning to `NCCc1c(C(c2c[nH]c3ccccc23)C(O)CO)[nH]c2ccc(O)cc12` (stereo not given), the IC50 amounted to 12.7 µM.

Molecule `CNCCc1c[nH]c2ccc(OC)cc12` registered an IC50 of 12.5 µM.

Molecule `CN(C)CCc1c[nH]c2ccc(O)cc12` [BUFOTENINE] had an IC50 of 11.4 µM.

Take `COc1ccc2[nH]cc(CCN(C)C)c2c1` [MEBUFOTENIN]: inhibition was half-maximal at 14 µM (IC50).
